# Results published in patent US20220282304A1, “SAME-SAMPLE ANTIBIOTIC SUSCEPTIBILITY TEST AND RELATED COMPOSITIONS, METHODS AND SYSTEMS” (CALIFORNIA INSTITUTE OF TECHNOLOGY, priority 2021, published 2022).
# Columns and labels:
# [1] = system: Escherichia coli isolate A; experiment: Same-sample filtration AST, replicate treated and concurrent reference conditions (Example 3), isolate A; type: cell-based; conditions: 1 μg/mL ETP, 60 minutes 37° C.
# Experimental: (§1) Isolate A was susceptible to ertapenem, while isolate B was resistant. The inoculum was small enough that no detectable difference in the sample's optical density at 600 mm (OD600) was detectable before and after inoculation by an Ultrospec 10 spectrophotometer with an analytical sensitivity of 0.01 absorbance units. After an incubation at 37° C., the media became turbid with an OD600 of 0.5 absorbance units after about 2 hours of incubation.
# (§2) To begin the AST protocol, 23.75 μL of the above 8 bacteria batch culture dilutions was twice added to and mixed with 1.25 μL of water containing either 20 μg/mL or 0 μg/mL of dissolved ertapenem (ETP) antibiotic. As a result, […] at 1 μg/mL were created, and 8 untreated reference conditions were created (see Table 2 below). The […] were incubated at 37° C. for 60 minutes.
# (§3) After 60 minutes of incubation, the entire volume of each antibiotic exposure was transferred to an individual cellulose acetate filter unit with a 0.2 μm pore size. […]
# (§4) 50 μL of fresh MHB media was spun through the filters after the first centrifugation (above) to wash away residual extracellular nucleic acids present in the fluid wetting the filters. […] In this experiment, the wash fluid was collected and analyzed to learn more about the protocol, but this washing step is not necessary for determining susceptibility of the isolate. […]
# [2] = system: Escherichia coli isolate B; experiment: Same-sample filtration AST, replicate treated and concurrent reference conditions (Example 3), isolate B; type: cell-based; conditions: 1 μg/mL ETP, 60 minutes 37° C.
# Experimental: as §1, §2, §3, §4
smiles,measurement,setting,value
"C[C@@H](O)[C@H]1C(=O)N2C(C(=O)O)=C(S[C@@H]3CN[C@H](C(=O)Nc4cccc(C(=O)O)c4)C3)[C@H](C)[C@H]12 [ETP, ertapenem]",susceptibility call (threshold: reference mean + 2 SD of fraction extracellular),[1]; alternative analysis,susceptible
same,susceptibility call (t-test treated vs untreated percent extracellular),[1]; ddPCR 23S rRNA,susceptible
same,susceptibility call (threshold: reference mean + 2 SD of fraction extracellular),[2]; alternative analysis,resistant
same,susceptibility call (t-test treated vs untreated percent extracellular),[2]; ddPCR 23S rRNA,resistant
